Measured values as given in patent US4851385A, “LHRH antagonist analogs having low histamine-release activity” (Indiana University Foundation, priority 1987, dated 1989).
Where a SMILES comes first, the peptide text is derived from it. [ ]: non-standard residue; d: D form. dPhe(4-Cl) = N[C@H](Cc1ccc(Cl)cc1)C(=O)O; d2Nal = N[C@H](Cc1ccc2ccccc2c1)C(=O)O

Legend:
histamine release = details: cited from earlier work
rat mast cells [1] = details: mast cell supernatants assayed concomitantly for lactic dehydrogenase
From the text: The ED50 values of Table I (mean effective dose from dose response curves), are expressed in μg/ml. […] For routine testing, mast cells were not purified.

rat = experiment: Standard antiovulatory assay (Corbin and Beattie); assay type: in vivo
Experimental: Antiovulatory activity was determined by standard antiovulatory assays conducted by the method described by Corbin and Beattie, Endocrine Research Communications 2 1 (1975) and results are given in Table I.

rat mast cells [2] = experiment: In vitro histamine releasing activity assay (rat peritoneal mast cell suspension, fluorometric histamine assay); assay type: cell-based; details: mean effective dose from dose response curves, 15 min at 37° C., duplicate or triplicate, cells from at least three rats
Experimental: The in vitro histamine release activity of the analogs was assayed by the method described below and the results are given in Table I.
A suspension of rat mast cells was added to increasing concentrations of peptide and the mixture was incubated for a few minutes followed by centrifugation to collect the histamine in the supernatant. A PIPES (piperazine-N,N'-bis[2-ethanesulfonic acid]) medium buffered at pH 7.4 containing NaCl119 mM, KCl5 mM, PIPES 25mM, NaOH 40 mM, glucose 5.6 mM, CaCl2 1 mM and 0.1% bovine serum albumin was used. This was designated as PIPES AC. Peptides were dissolved in double distilled H2 O at a concentration of 2 mg ml and stored at -20° C. They were thawed just prior to testing, duluted in PIPES AC and prewarmed for 5 min. at 37° C. Peptides studied were stable to heating at 56° C. for 2 hr., and to freezing and thawing.
Peritoneal cells were collected from male Sprague-Dawley rats weighing 200 to 250 gm and purchased from Harlan (Madison, Wis.). After euthanasia by CO2, the peritoneal cavity was washed with 50 ml PIPES AC medium containing 20 units of heparin. Following centrifugation at 200×g for 8 min. at 4° C., cells were washed again and finally resuspended to a concentration of 8 to 24×10^5 total leukocytes/ml in PIPES AC. This suspension contained approximately 5-10% mast cells. […]

## CC(=O)N[C@H](Cc1ccc2ccccc2c1)C(=O)N[C@H](Cc1ccc(Cl)cc1)C(=O)N[C@H](Cc1c[nH]c2ccccc12)C(=O)N[C@@H](CO)C(=O)N[C@@H](Cc1ccc(O)cc1)C(=O)N[C@H](CCCNC(=N)N)C(=O)N[C@@H](CC(C)C)C(=O)N[C@@H](CCCNC(=N)N)C(=O)N1CCC[C@H]1C(=O)N[C@H](C)C(N)=O [Compound 1, [N-Ac-D-Nal(2)^1, D-p-Cl-Phe^2, D-Trp^3, D-Arg^6, D-Ala^10] LHRH] (Ac-[d2Nal][dPhe(4-Cl)][dW]SY[dR]LRP[dA]-NH2)
Histamine release; Karten and Rivier 1986
  histamine releasing activity (in words): potent histamine releasing anlog

## CC(C)C[C@H](NC(=O)CNC(=O)[C@H](Cc1ccc(O)cc1)NC(=O)[C@H](CO)NC(=O)[C@H](Cc1c[nH]c2ccccc12)NC(=O)[C@H](Cc1cnc[nH]1)NC(=O)[C@@H]1CCC(=O)N1)C(=O)N[C@@H](CCCNC(=N)N)C(=O)N1CCC[C@H]1C(=O)NCC(N)=O [LHRH, luteinizing hormone-releasing hormone]
Rat mast cells [1]
  cell toxicity by release of lactic dehydrogenase: no evidence seen of cell toxicity

## [Ac-2-D-Nal^1, α-Me-4-C1-D-Phe^2, D-Trp^3, Arg^5, D-Tyr^6, D-Ala^10 ] LHRH
Histamine release; Roeske et al. 1985
  times less potent in histamine releasing activity than the synthetic D-Arg6 antagonists: 20-40 times

## [Ac-D-2-Nal^1, D-4-C1-Phe^2, D-Trp^3, D-N^ε -Heptyl Lys, Nε-Heptyl Lys^8, D-Ala^10 ]LHRH
rat; N-alkylation of Lys 6 and 8 with a 7-carbon moiety
  antiovulatory activity (in words): lowers antiovulatory activity markedly

## [N--Ac--D-Nal(2)^1,D-C--α-Me--pCl--Phe^2,D-Pal(3)^3,D-Arg^6,hArg(Et2)^8,D-Ala^10 ]LHRH [Compound 2]
rat; corn oil vehicle, ≥ = significant reduction in rats ovulating but ED100 not achieved at the dose, ≥≥ = inactive at the dose tested
  Ovulation Inhibition, Corn Oil, ED100: 1.0 ug/rat
Rat mast cells [2]
  In Vitro Histamine Release ED50: 4.9 µg/mL

## [N-Ac-D-Nal(2)^1, D-pC1-Phe^2, D-Pal^3, Arg^5, D-Tyr^6, D-Ala^10 ]LHRH
Histamine release; from Roeske et al. 1985
  mean effective dose for histamine release (known analog): about 4.0 ug/ml
